Source: ChEMBL document CHEMBL1201862, “PubChem BioAssay data set” (2004)
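96-well plates; 48 h exposure; 5 concentrations. Endpoints by linear interpolation between flanking doses. Not reached: highest tested concentration assigned. GI50 marks 50% less growth.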 Calls of active or inactive are those of the source. Cut-off read from the data, not from the text of the source: active = GI50 up to about 1.1 µM and inactive = higher.

Assays:
Assay in all cases: inhibition of tumour cell growth, NCI panel, 48 h
[1] = system: TK-10
[2] = system: DU-145
[3] = system: MDA-N
[4] = system: MDA-MB-231
[5] = system: SK-MEL-28
[6] = system: IGROV-1
[7] = system: PC-3
[8] = system: M14
[9] = system: NCI-H226
[10] = system: OVCAR-5
[11] = system: COLO 205
[12] = system: UACC-62
[13] = system: ACHN
[14] = system: LOX IMVI
[15] = system: MCF7
[16] = system: SNB-75
[17] = system: KM12
[18] = system: K562
[19] = system: SF-539
[20] = system: MOLT-4
[21] = system: SF-268
[22] = system: MDA-MB-435
[23] = system: SNB-19
[24] = system: SK-OV-3
[25] = system: U-251
[26] = system: 786-0
[27] = system: UO-31
[28] = system: SK-MEL-5
[29] = system: HOP-62
[30] = system: HT-29
[31] = system: HCT-116
[32] = system: SW-620
[33] = system: BT-549
[34] = system: NCI-H23
[35] = system: Hs-578T
[36] = system: SF-295
[37] = system: EKVX
[38] = system: A498
[39] = system: OVCAR-8
[40] = system: NCI-H460
[41] = system: HCC 2998
[42] = system: NCI-H522
[43] = system: NCI/ADR-RES
[44] = system: HOP-92
[45] = system: OVCAR-3
[46] = system: UACC-257
[47] = system: CCRF-CEM
[48] = system: T47D
[49] = system: HCT-15
[50] = system: SK-MEL-2
[51] = system: SN12C
[52] = system: RXF 393
[53] = system: SR
[54] = system: Malme-3M
[55] = system: CAKI-1
[56] = system: RPMI-8226
[57] = system: HL-60
[58] = system: OVCAR-4
[59] = system: A549

Structure (SMILES): Cc1ccnc2c1c(=O)c1ccccc1n2C
- GI50 [1]: 26.3 µM (inactive)
- GI50 [2]: 52.2 µM (inactive)
- GI50 [3]: 34.3 µM (inactive)
- GI50 [4]: 31.8 µM (inactive)
- GI50 [5]: 43 µM (inactive)
- GI50 [6]: 31 µM (inactive)
- GI50 [7]: 31.8 µM (inactive)
- GI50 [8]: 39 µM (inactive)
- GI50 [9]: 44.7 µM (inactive)
- GI50 [10]: 54.5 µM (inactive)
- GI50 [11]: 39 µM (inactive)
- GI50 [12]: 16.2 µM (inactive)
- GI50 [13]: 27.7 µM (inactive)
- GI50 [14]: 37.6 µM (inactive)
- GI50 [15]: 32.9 µM (inactive)
- GI50 [16]: 17.6 µM (inactive)
- GI50 [17]: 50.7 µM (inactive)
- GI50 [18]: 50.7 µM (inactive)
- GI50 [19]: 29.9 µM (inactive)
- GI50 [20]: 23.9 µM (inactive)
- GI50 [21]: 28 µM (inactive)
- GI50 [22]: 42.9 µM (inactive)
- GI50 [23]: 15.4 µM (inactive)
- GI50 [24]: 35.2 µM (inactive)
- GI50 [25]: 39.8 µM (inactive)
- GI50 [26]: 53.6 µM (inactive)
- GI50 [27]: 12.9 µM (inactive)
- GI50 [28]: 18.7 µM (inactive)
- GI50 [29]: 40.7 µM (inactive)
- GI50 [30]: 29.5 µM (inactive)
- GI50 [31]: 39.4 µM (inactive)
- GI50 [32]: 35.5 µM (inactive)
- GI50 [33]: 27.1 µM (inactive)
- GI50 [34]: 49.1 µM (inactive)
- GI50 [35]: 25.3 µM (inactive)
- GI50 [36]: 37.5 µM (inactive)
- GI50 [37]: 30.8 µM (inactive)
- GI50 [38]: 31.8 µM (inactive)
- GI50 [39]: 34.4 µM (inactive)
- GI50 [40]: 13.1 µM (inactive)
- GI50 [41]: 39.9 µM (inactive)
- GI50 [42]: 19.1 µM (inactive)
- GI50 [43]: 40.6 µM (inactive)
- GI50 [44]: 49.7 µM (inactive)
- GI50 [45]: 63.2 µM (inactive)
- GI50 [46]: 37.1 µM (inactive)
- GI50 [47]: 47.2 µM (inactive)
- GI50 [48]: 38.9 µM (inactive)
- GI50 [49]: 38 µM
- GI50 [50]: 52.1 µM (inactive)
- GI50 [51]: 30.5 µM (inactive)
- GI50 [52]: 33.3 µM (inactive)
- GI50 [53]: 44.9 µM (inactive)
- GI50 [54]: 29.6 µM (inactive)
- GI50 [55]: 22.1 µM (inactive)
- GI50 [56]: 36.7 µM (inactive)
- GI50 [57]: 34.2 µM (inactive)
- GI50 [58]: 35.6 µM (inactive)

Structure (SMILES): O=c1[nH]c(=O)n(C/C=C/CO)nc1Br
- GI50 [1]: > 100 µM (inactive)
- GI50 [59]: > 100 µM (inactive)
- GI50 [2]: > 100 µM (inactive)
- GI50 [3]: > 100 µM (inactive)
- GI50 [4]: > 100 µM (inactive)
- GI50 [5]: > 100 µM (inactive)
- GI50 [6]: > 100 µM (inactive)
- GI50 [7]: > 100 µM (inactive)
- GI50 [8]: > 100 µM (inactive)
- GI50 [9]: > 100 µM (inactive)
- GI50 [10]: > 100 µM (inactive)
- GI50 [11]: > 100 µM (inactive)
- GI50 [12]: > 100 µM (inactive)
- GI50 [13]: > 100 µM (inactive)
- GI50 [14]: > 100 µM (inactive)
- GI50 [15]: > 100 µM (inactive)
- GI50 [16]: > 100 µM (inactive)
- GI50 [17]: > 100 µM (inactive)
- GI50 [19]: > 100 µM (inactive)
- GI50 [20]: > 100 µM (inactive)
- GI50 [21]: > 100 µM (inactive)
- GI50 [22]: > 100 µM (inactive)
- GI50 [23]: > 100 µM (inactive)
- GI50 [25]: > 100 µM (inactive)
- GI50 [26]: > 100 µM (inactive)
- GI50 [27]: > 100 µM (inactive)
- GI50 [28]: > 100 µM (inactive)
- GI50 [29]: > 100 µM (inactive)
- GI50 [30]: > 100 µM (inactive)
- GI50 [31]: > 100 µM (inactive)
- GI50 [32]: > 100 µM (inactive)
- GI50 [33]: > 100 µM (inactive)
- GI50 [34]: > 100 µM (inactive)
- GI50 [35]: > 100 µM (inactive)
- GI50 [36]: > 100 µM (inactive)
- GI50 [37]: > 100 µM (inactive)
- GI50 [38]: > 100 µM (inactive)
- GI50 [39]: > 100 µM (inactive)
- GI50 [40]: > 100 µM (inactive)
- GI50 [41]: > 100 µM (inactive)
- GI50 [42]: > 100 µM (inactive)
- GI50 [43]: > 100 µM (inactive)
- GI50 [44]: > 100 µM (inactive)
- GI50 [45]: > 100 µM (inactive)
- GI50 [46]: > 100 µM (inactive)
- GI50 [47]: > 100 µM (inactive)
- GI50 [48]: > 100 µM (inactive)
- GI50 [49]: > 100 µM
- GI50 [50]: > 100 µM (inactive)
- GI50 [51]: > 100 µM (inactive)
- GI50 [52]: > 100 µM (inactive)
- GI50 [53]: > 100 µM (inactive)
- GI50 [54]: > 100 µM (inactive)
- GI50 [55]: > 100 µM (inactive)
- GI50 [56]: > 100 µM (inactive)
- GI50 [57]: > 100 µM (inactive)
- GI50 [58]: > 100 µM (inactive)
